The text below walks through data of patent US8691534B2, “Preparation of romidepsin” (Celgene Corporation, priority 2006, dated 2014).

The nature of the data set: pH-dependent stability of romidepsin in solution during production, purification and storage. The format is physicochemical. The text has this:
Based on this recognition, the present invention provides a system for reproducibly preparing romidepsin under conditions that reduce the levels of these contaminating side products. […] This improvement in the purification process of romidepsin allows for higher yields of romidepsin and/or higher purity romidepsin than that provided by known processes. Such an improvement is particularly useful for preparing pharmaceutical grade romidepsin for use in humans.
Romidepsin is a cyclic depsipeptide having a disulfide bond. […] Such adducts are typically insoluble and difficult to remove from purified romidepsin. In certain embodiments, such contaminating adducts prevent a preparation of romidepsin from meeting the desired specifications (e.g., solubility, degree of purity, optical rotation, etc.). In pharmaceutical compositions, these adducts decrease the purity of the active agent, romidepsin. Since romidepsin is being used as a pharmaceutical agent in humans, it is important that pure, stable, monomeric romidepsin be reproducibly obtained from a fermentation of Chromobacterium violaceum. The present invention stems from the recognition that alkaline conditions cause the formation of these undesired romidepsin adducts and provides a novel solution to this problem.

With `C/C=C1\NC(=O)[C@H]2CSSCC/C=C/[C@H](CC(=O)N[C@H](C(C)C)C(=O)N2)OC(=O)[C@H](C(C)C)NC1=O` [Romidepsin, (1S,4S,10S,16E,21R)-7-[(2Z)-ethylidene]-4,21-diisopropyl-2-oxa-12,13-dithia-5,8,20,23-tetraazabicyclo[8.7.6]tricos-16-ene-3,6,9,19,22-pentanone], for the setting “basic conditions, e.g. greater than an apparent pH of ~7”, the “reduction of the disulfide bond” value is reported as “facilitates the reduction of this disulfide bond”. Further, the “formation of dimerized, oligomerized, or polymerized romidepsin” value (producing, purifying and/or storing at an apparent pH less than approximately 6.5, more preferably less than approximately 6.0) was “prevent the formation of dimerized, oligomerized, or polymerized romidepsin”.
